According to patent publication US7238340B1, “Monoamine, diamide, thiol-containing metal chelating agents” (CIS bio international, priority 1991, dated 2007):
pIC50, pKi: −log10 of the molar value. Read-outs that look alike come from different tables or passages of the source. Starred links: 1 amine or outer side, 2 acyl side, 3 side chain; linkers in the order of their positions; H or OH if unused. Positions of bridges follow the written chain, without caps; N, C: chain ends. Non-standard residues stand in square brackets, D forms with d. Residues, ends and D or L forms follow the SMILES beside them. Chains are numbered I, II in the order given. No end group written: not given here. *: point of attachment. Phe(4-Cl) = N[C@@H](Cc1ccc(Cl)cc1)C(=O)O; d2Nal = N[C@H](Cc1ccc2ccccc2c1)C(=O)O; εLys = N[C@@H](CCCCN[*:1])C(=O)[*:2]; Propyl(3-NH2) = NCCC*; βAla = NCCC(=O)O

How the values were obtained:
[1] = target: T1, somatostatin receptor (Rattus norvegicus, UniProt P30680); assay: Inhibition of [125I-Tyr11]somatostatin-14 binding to AR42J rat pancreatic tumor cell membranes; details: [125I-Tyr11]somatostatin-14 0.5 nM, 25 min at 30° C.
T1 construct: endogenous in cells; host or cells: AR42J rat pancreatic tumor cells (membrane preparation)
Description: The rat pancreatic tumor cell line AR42J expressing the somatostatin receptor was cultured in Dulbecco's modified essential media (DMEM) supplemented with 10% fetal calf serum (FCS) and 8 mM glutamine in a humidified 5% CO2 atmosphere at 37° C. Harvested cells were homogenized in cold buffer (50 mM Tris-HCl, pH 7.4), and the homogenate was then centrifuged at 39,000 g for 10 min at 4° C. Pellets were washed once with buffer and then resuspended in ice-cold 10 mM Tris-HCl buffer (pH 7.4). Equal aliquots of this cell membrane preparation were then incubated with [^125I-Tyr^11]somatostatin-14 (Amersham, Arlington Heights, Ill.) at a final concentration of 0.5 nM at 750,000 cpm/mL, specific activity 2000Ci/mmol and either a peptide or peptide-rhenium complex of the invention (at a final concentration ranging from […] in 50 mM HEPES buffer, pH 7.4, containing 1% bovine serum albumin, 5 mM MgCl2, 0.02 mg/mL bacitracin, 0.02 mg/mL phenylmethyl-sulfonylfluoride and 200,000 IU Trasylol) for 25 min at 30° C.
After incubation, this membrane mixture was filtered through a polyethyleneimine-washed GC/F filter (Whatman Ltd., Maidstone, England) using a filtration manifold, and the residue remaining on the filter was washed three times with 5 mL cold HEPES buffer. The filter and a sample of the filter washings were then counted on a gamma counter. […]

[2] = tested on: fresh human platelet-rich plasma; assay: Platelet aggregation inhibition assay (ADP-induced); format: cell-based
Description: Platelet aggregation studies were performed essentially as described by Zucker (1989, Methods in Enzymol. 169: 117–133). Briefly, platelet aggregation was assayed with or without putative platelet aggregation inhibitory compounds using fresh human platelet-rich plasma, comprising 300,000 platelets per microlitre. Platelet aggregation was induced by the addition of a solution of adenosine diphosphate to a final concentration of 10 to 15 micromolar, and the extent of platelet aggregation monitored using a Bio/Data aggregometer (Bio/Data Corp., Horsham, Pa.). The concentrations of platelet aggregation inhibitory compounds used were varied from 0.1 to 500 μg/mL. The concentration of inhibitor that reduced the extent of platelet aggregation by 50% (defined as the IC50) was determined from plots of inhibitor concentration versus extent of platelet aggregation. An inhibition curve for peptide RGDS was determined for each batch of platelets tested as a positive control.

[3] = tested on: thrombus; assay: In vivo imaging of deep vein thrombosis with Tc-99m labeled thrombus targeting peptide, canine model; details: Tc-99m labeled peptide, i.v., dog
Description: (§1) Mongrel dogs (25–35 lb., fasted overnight) were sedated with a combination of ketamine and aceprozamine intramuscularly and then anesthetized with sodium pentabarbital intravenously. In each animal, an 18-gauge angiocath was inserted in the distal half of the right femoral vein and a 5 mm or 8 mm Dacron®-entwined stainless steel embolization coil (Cook Co., Bloomington Ind.) was placed in the femoral vein at approximately mid-femur. The catheter was removed, the wound sutured and the placement of the coil documented by X-ray. The animals were then allowed to recover overnight.
(§2) One day following coil placement, each animal was re-anesthetized, intravenous saline drips placed in each foreleg and a urinary bladder catheter inserted to collect urine. The animal was placed supine under a gamma camera equipped with a low-energy, all purpose collimator and photopeaked for Tc-99m. […] The second line was maintained for blood collection.
(§3) Gamma camera imaging was started simultaneously with injection. Anterior images over the heart were acquired as a dynamic study (10 sec image acquisitions) over the first 10 min, and then as static images at 1, 2, 3 and 4h post-injection. Anterior images over the legs were acquired for 500,000 counts or 20 min (whichever is shorter), at approximately 10–20 min, and at approximately 1, 2, 3 and 4h post-injection. Leg images were collected with a lead shield placed over the bladder.
(§4) Following collection of the final image, each animal was deeply anesthetized with pentobarbital. Two blood samples were collected using a heparinized syringe followed by a euthanizing dose of saturated potassium chloride solution administered by intercardiac or bolus intravenous injection. […] The thrombus, coil and coil Dacron fibres were then dissected free of the vessel. The thrombus, saline-washed vessel samples, coil and coil Dacron® fibres were separated, and each sample was placed in a pre-weighed test tube. The samples were weighed and counted in a gamma well counter in the Tc-99m channel, along with known fractions of the injected doses.
(§5) Fresh thrombus weight, percent injected dose (% ID)/g in the thrombus and blood obtained just prior to euthanasia and thrombus/blood and thrombus/muscle ratios were determined. From the computer-stored images, thrombus/background ratios were determined by analysis of the counts/pixel measured in regions-of-interest (ROI) drawn over the thrombus and adjacent muscle.

[4] = tested on: thrombus; details: dog, in vivo, iv
Description: as §1, §2, §3, §4, §5

[5] = tested on: Escherichia coli infected muscle; design: species or system New Zealand White (NZW) rabbits; details: rabbit, in vivo
Description: New Zealand White (NZW) rabbits of both sexes and weighing 2–3 kg were innoculated intramuscularly in the left calf with a potent strain of Escherichia coli. After 24 hours, the animals were sedated by intramuscular injection of ketamine and xylazine and then injected with Tc-99m labeled infection targeting agent (2–10mCi, <150 μg). The animals were then positioned supine in the field of view of a gamma cammera (LEAP collimator/photopeaked for Tc-99m) to be imaged. The animals were imaged over the first hour post-injection, and then at approximately 1 hour intervals for the next 3 hours. Animals were allowed to recover between image acquisiitons and re-anesthetized as needed.
Upon completion of the final imaging, each animal was sacrificed with an intravenous overdose of sodium pentobarbital, then dissected to obtain samples of blood and of infected and control tissue. Tissue samples were weighed and counted using a gamma radition counter; a standard amount the injected dose was counted in parallel with each sample as a control.

[6] = tested on: CA20948 rat pancreatic tumor; design: species or system Lewis rats; details: in vivo, iv
Description: In vivo imaging of somatostatin receptors expressed by rat tumor cells was performed essentially as described by Bakker et al. (1991, Life Sciences 49: 1593–1601).
CA20948 rat pancreatic tumor cells, thawed from frozen harvested tumor brei, were implanted intramuscularly into the right hind thigh of 6 week old Lewis rats in a suspension of 0.05 to 0.1 mL/animal. The tumors were allowed to grow to approximately 0.5 to 2 g, harvested, and tumor brei was used to implant a second, naive set of Lewis rats. Passaging in this fashion was repeated to generate successive generations of tumor-bearing animals. The tumor-bearing animals used for the in vivo studies were usually from the third to fifth passage and carried 0.2 to 2 g tumors.
For studies of the specificity of radiotracer localization in the tumors, selected animals were given an subcutaneous SSTR-blocking dose (4 mg/kg) of octreotide 30 minutes prior to injection of the radiotracer.
Third- to fifth-passage CA20948 tumor-bearing Lewis rats were restrained and injected intravenously via the dorsal tail vein with a dose of 0.15–0.20 mCi of a ^99mTc-labeled SSTR targeting imaging agent of the invention (corresponding to 3 to 8 μg peptide in 0.2 to 0.4 mL).
At selected times, the animals were sacrificed by cervical dislocation and selected necropsy was performed. Harvested tissue samples were weighed and counted along with an aliquot of the injected dose in a gamma well-counter.

[7] = ADP 10 to 15 micromolar, human platelet-rich plasma, read-out: IC50

T1 sequence (P30680 whole entry): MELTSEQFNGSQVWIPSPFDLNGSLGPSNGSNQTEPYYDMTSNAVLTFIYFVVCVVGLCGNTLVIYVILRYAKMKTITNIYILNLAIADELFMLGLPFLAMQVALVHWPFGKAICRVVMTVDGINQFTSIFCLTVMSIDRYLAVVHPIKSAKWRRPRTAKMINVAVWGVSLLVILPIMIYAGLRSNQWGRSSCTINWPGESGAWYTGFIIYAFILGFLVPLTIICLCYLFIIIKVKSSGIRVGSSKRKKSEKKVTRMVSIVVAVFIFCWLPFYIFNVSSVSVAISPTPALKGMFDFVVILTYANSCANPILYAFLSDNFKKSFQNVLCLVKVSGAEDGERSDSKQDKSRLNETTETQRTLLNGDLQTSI

CC(=O)N[C@H](Cc1ccc2ccccc2c1)C(=O)N[C@@H](Cc1ccc(Cl)cc1)C(=O)N[C@@H](Cc1ccc(O)cc1)C(=O)N[C@H](Cc1c[nH]c2ccccc12)C(=O)N[C@@H](CCCCN)C(=O)N[C@H](C(=O)N[C@@H](Cc1ccccc1)C(=O)N[C@H](C(=O)NCCCC[C@H](N)C(=O)NCC(=O)N[C@@H](CS)C(=O)N[C@@H](CCCCN)C(=O)N[C@@H](CCCCN)C(N)=O)[C@@H](C)O)[C@@H](C)O [Peptide P548, acetyl.NalD.Cpa.YWDKTFT(ε-K)GCKK.amide] (Ac-[d2Nal][Phe(4-Cl)]Y[dW]KTFT[εLys]GCKK-NH2)
pKi [1]: 8.44

NCCCSC[C@@H]1NC(=O)[C@@H](Cc2ccc(O)cc2)NC(=O)CSC[C@@H](C(=O)NCC(=O)NCCCC[C@H](NC(=O)CNC(=O)[C@@H]2CSCC(=O)N[C@H](Cc3ccc(O)cc3)C(=O)N[C@@H](CSCCCN)C(=O)NCC(=O)N[C@@H](CC(=O)O)C(=O)N2)C(=O)NCC(=O)NCCCC[C@H](NC(=O)CNC(=O)[C@H](CCCCNC(=O)CNC(=O)[C@@H]2CSCC(=O)N[C@H](Cc3ccc(O)cc3)C(=O)N[C@@H](CSCCCN)C(=O)NCC(=O)N[C@@H](CC(=O)O)C(=O)N2)NC(=O)CNC(=O)[C@@H]2CSCC(=O)N[C@H](Cc3ccc(O)cc3)C(=O)N[C@@H](CSCCCN)C(=O)NCC(=O)N[C@@H](CC(=O)O)C(=O)N2)C(=O)NCCCC[C@H](N)C(=O)NCC(=O)N[C@@H](CS)C(=O)NCC(N)=O)NC(=O)[C@H](CC(=O)O)NC(=O)CNC1=O [Peptide P681, {(CH2CO.YDApc.GDCG)2KG}2K(ε-K)GCG.amide] (I: {CH2CO}-[dY]C(Propyl(3-NH2))GDCGKGK[εLys]GCG-NH2 / II: {CH2CO}-[dY]C(Propyl(3-NH2))GDCGKG / III: {CH2CO}-[dY]C(Propyl(3-NH2))GDCG / IV: {CH2CO}-[dY]C(Propyl(3-NH2))GDCG; amide I:7-IV:C, I:9-II:C, II:7-III:C (inferred); thioether I:N-I:5, II:N-II:5, III:N-III:5, IV:N-IV:5 (inferred))
pIC50 [2]: 6.96

NCCCC[C@H](NC(=O)[C@@H]1CSCC(=O)N[C@H](Cc2ccc(O)cc2)C(=O)N[C@@H](CSCCCN)C(=O)NCC(=O)N[C@@H](CC(=O)O)C(=O)N1)C(=O)NCC(=O)NCC(=O)NCCCC[C@H](NC(=O)CNC(=O)CNC(=O)[C@H](CCCCN)NC(=O)[C@@H]1CSCC(=O)N[C@H](Cc2ccc(O)cc2)C(=O)N[C@@H](CSCCCN)C(=O)NCC(=O)N[C@@H](CC(=O)O)C(=O)N1)C(=O)NCCCC[C@H](N)C(=O)NCC(=O)N[C@@H](CS)C(=O)NCCC(N)=O [Peptide P687, (CH2CO.YD.Apc.GDCKGG)2K(ε-K)GC.β-Ala.amide] (I: {CH2CO}-[dY]C(Propyl(3-NH2))GDCKGGK[εLys]GC[βAla]-NH2 / II: {CH2CO}-[dY]C(Propyl(3-NH2))GDCKGG; amide I:9-II:C (inferred); thioether I:N-I:5, II:N-II:5 (inferred))
pIC50 [2]: 7.10

CC(=O)NCSC[C@H](NC(=O)CNC(=O)CNC(=O)[C@@H]1CSCC(=O)N[C@H](Cc2ccc(O)cc2)C(=O)N[C@@H](CSCCCN)C(=O)NCC(=O)N[C@@H](CC(=O)O)C(=O)N1)C(=O)NCC(=O)N[C@@H](CSCNC(C)=O)C(=O)NCC(=O)NCC(=O)N[C@@H](CSCC(=O)NCCCC[C@H](NC(=O)CSC[C@H](NC(=O)CNC(=O)CNC(=O)[C@H](CSCNC(C)=O)NC(=O)CNC(=O)[C@H](CSCNC(C)=O)NC(=O)CNC(=O)CNC(=O)[C@@H]1CSCC(=O)N[C@H](Cc2ccc(O)cc2)C(=O)N[C@@H](CSCCCN)C(=O)NCC(=O)N[C@@H](CC(=O)O)C(=O)N1)C(N)=O)C(=O)NCCCC[C@H](NC(=O)[C@H](CCCCNC(=O)CSC[C@H](NC(=O)CNC(=O)CNC(=O)[C@H](CSCNC(C)=O)NC(=O)CNC(=O)[C@H](CSCNC(C)=O)NC(=O)CNC(=O)CNC(=O)[C@@H]1CSCC(=O)N[C@H](Cc2ccc(O)cc2)C(=O)N[C@@H](CSCCCN)C(=O)NCC(=O)N[C@@H](CC(=O)O)C(=O)N1)C(N)=O)NC(=O)CSC[C@H](NC(=O)CNC(=O)CNC(=O)[C@H](CSCNC(C)=O)NC(=O)CNC(=O)[C@H](CSCNC(C)=O)NC(=O)CNC(=O)CNC(=O)[C@@H]1CSCC(=O)N[C@H](Cc2ccc(O)cc2)C(=O)N[C@@H](CSCCCN)C(=O)NCC(=O)N[C@@H](CC(=O)O)C(=O)N1)C(N)=O)C(=O)NCCCC[C@H](N)C(=O)NCC(=O)N[C@@H](CS)C(=O)NCC(N)=O)C(N)=O [Peptide P688, {(CH2CO.YD.Apc. GDCGGCAcmGCAcmGGCamide)2(CH2CO)2K}2.K(ε-K)GCG.amide]
pIC50 [2, 7]: 7.59

(CH2CO.YD.Apc.GDCGGCAcmGCAcmGGC.amide)2(CH2CO)2K(ε-K)GC.amide [Peptide P667]
pIC50 [2, 7]: 6.96 | % ID/g Thrombus ([3]; after the final image (4h post-injection)): 0.006 % ID/g | Thrombus/Blood ([3]; ratio): 5.9 | Thrombus/Muscle ([3]; ratio): 30

(CH2CO.YDApc.GDCKGCG.amide)2(CH2CO)2K(ε-K)GC.amide [Peptide P748]
pIC50 [2, 7]: 7.54 | Thrombus/Blood [4]: 5.8 | Thrombus/Muscle [4]: 90

AKCGGGFDYWDKTFT.amide (AKCGGGFDYWDKTFT-NH2) [Peptide P398]
pKi [1]: 8.85

GGCGLF [Peptide P477]
Blood (% ID/g) [5]: 0.0140 % ID/g | Control Muscle (% ID/g) [5]: 0.0012 % ID/g | Infected Muscle (% ID/g) [5]: 0.0100 % ID/g | Ratio of Infected/Blood [5]: 0.72 | Ratio of Infected/Control [5]: 8.4

GGCSIPPEVKFNKPFVYLI.amide (GGCSIPPEVKFNKPFVYLI-NH2) [Peptide P472]
Blood (% ID/g) [5]: 0.0076 % ID/g | Control Muscle (% ID/g) [5]: 0.0009 % ID/g | Infected Muscle (% ID/g) [5]: 0.0079 % ID/g | Ratio of Infected/Blood [5]: 1.0 | Ratio of Infected/Control [5]: 8.8

cyclo(N-methyl)FYWDKV.Hcy.(CH2CO.(β-Dap)KCK.amide) [Peptide P829]
Tumor/Blood [6]: 13

cyclo(N-methyl)FYWDKV.Hcy.(CH2CO.(β-Dap)KCR.amide) [Peptide P832]
Tumor/Blood [6]: 13

cyclo(N-methyl)FYWDKV.Hcy.(CH2CO.(δ-Dap)GCK.amide) [Peptide P772]
Tumor/Blood [6]: 7.2

cyclo(N-methyl)FYWDKV.Hcy.(CH2CO.(δ-Orn)GCK.amide) [Peptide P773]
% ID/g Blood ([6]; 1.5 h): 0.13 % ID/g | % ID/g Tumor ([6]; 1.5 h): 1.9 % ID/g | Tumor/Blood ([6]; 1.5 h): 15

cyclo(N-methyl)FYWDKV.Hcy.(CH2CO.(ε-K)GCKK.amide) [Peptide P723]
Tumor/Blood [6]: 5.4
